From the NIST ThermoML archive (doi:10.1021/je700373r)

Assay: xn = mol fraction of the nth substance listed
Conditions: Fluid (supercritical or subcritical phases), Vibrating tube method

CC1=C(/C=C/C(C)=C/C=C/C(C)=C/C=C/C=C(C)/C=C/C=C(C)/C=C/C2=C(C)CCCC2(C)C)C(C)(C)CCC1 [β-carotene] + O=C=O
mass density [kg/m3]
Conditions	x1 = 1.5e-06	x1 = 2.2e-06	x1 = 2.9e-06	x1 = 4.3e-06	x1 = 4.8e-06	x1 = 5.5e-06	x1 = 6.5e-06
308.15 K, 10000 kPa	717.5	717.7	717.9	717.6	717.8	718.3	717.8
308.15 K, 15000 kPa	816.3	816.4	816.5	816.4	816.4	816.7	816.4
308.15 K, 20000 kPa	866.3	866.3	866.3	866.4	866.4	866.5	866.4
308.15 K, 30000 kPa	929.1	929.1	929.1	929.1	929.3	929.2	929.1
308.15 K, 40000 kPa	971.8	971.9	971.9	971.9	972	972	971.9
313.15 K, 10000 kPa	636.7	637.3	637.2	637.2	637.7	637.8	637.3
313.15 K, 15000 kPa	781.5	781.6	781.6	781.6	781.8	781.9	781.6
313.15 K, 20000 kPa	840.4	840.4	840.4	840.4	840.6	840.7	840.4
313.15 K, 30000 kPa	909.9	909.9	909.9	909.9	910	910.1	909.9
313.15 K, 40000 kPa	955.7	955.7	955.7	955.7	955.8	955.9	955.7
323.15 K, 10000 kPa	398.3	397.9	398.9	398.2	398.4	398.5	398.2
323.15 K, 15000 kPa	702	701.8	702.1	702	702.1	702.2	702
323.15 K, 20000 kPa	785	784.9	785.1	785	785.2	785.3	785
323.15 K, 30000 kPa	870.5	870.5	870.5	870.5	870.6	870.7	870.5
323.15 K, 40000 kPa	922.9	923	923	923	923	923.1	923
333.15 K, 10000 kPa	296.5	297.2	296.7	296.6	296.9	297	296.6
333.15 K, 15000 kPa	607.3	607.7	607.7	607.4	607.7	607.8	607.4
333.15 K, 20000 kPa	724.5	724.7	724.7	724.7	724.7	725	724.6
333.15 K, 30000 kPa	829.7	829.7	829.7	829.7	829.8	829.9	829.7
333.15 K, 40000 kPa	889.8	889.8	889.9	889.9	890	890	889.9
